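Protocol summary: plate cells (96-well), add compound at 5 concentrations, incubate 48 h, interpolate endpoints linearly. The concentration for 50% growth inhibition is given as GI50.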 Active and inactive are the calls of the source. Rule as the data show it: active = GI50 up to about 1.1 µM and inactive = higher.
Key:
Experiment in all cases: DTP human tumour cell line panel, 48 h
SK-MEL-5 = tested on: SK-MEL-5
OVCAR-8 = tested on: OVCAR-8
RXF 393 = tested on: RXF 393
M14 = tested on: M14
HCT-15 = tested on: HCT-15
NCI-H460 = tested on: NCI-H460
HCC 2998 = tested on: HCC 2998
NCI/ADR-RES = tested on: NCI/ADR-RES
CCRF-CEM = tested on: CCRF-CEM
RPMI-8226 = tested on: RPMI-8226
NCI-H226 = tested on: NCI-H226
786-0 = tested on: 786-0
KM12 = tested on: KM12
UO-31 = tested on: UO-31
DU-145 = tested on: DU-145
SR = tested on: SR
MOLT-4 = tested on: MOLT-4
SF-268 = tested on: SF-268
NCI-H23 = tested on: NCI-H23
OVCAR-4 = tested on: OVCAR-4
HL-60 = tested on: HL-60
MCF7 = tested on: MCF7
UACC-62 = tested on: UACC-62
Malme-3M = tested on: Malme-3M
HCT-116 = tested on: HCT-116
SF-539 = tested on: SF-539
Hs-578T = tested on: Hs-578T
SK-MEL-28 = tested on: SK-MEL-28
NCI-H522 = tested on: NCI-H522
ACHN = tested on: ACHN
MDA-MB-231 = tested on: MDA-MB-231
U-251 = tested on: U-251
SW-620 = tested on: SW-620
OVCAR-5 = tested on: OVCAR-5
SF-295 = tested on: SF-295
SN12C = tested on: SN12C
HT-29 = tested on: HT-29
COLO 205 = tested on: COLO 205
K562 = tested on: K562
SNB-19 = tested on: SNB-19
PC-3 = tested on: PC-3
TK-10 = tested on: TK-10
EKVX = tested on: EKVX
MDA-MB-435 = tested on: MDA-MB-435
CAKI-1 = tested on: CAKI-1
OVCAR-3 = tested on: OVCAR-3
SK-OV-3 = tested on: SK-OV-3
IGROV-1 = tested on: IGROV-1
SNB-75 = tested on: SNB-75
HOP-62 = tested on: HOP-62
MDA-N = tested on: MDA-N
HOP-92 = tested on: HOP-92
A549 = tested on: A549
UACC-257 = tested on: UACC-257
T47D = tested on: T47D
LOX IMVI = tested on: LOX IMVI
A498 = tested on: A498
SK-MEL-2 = tested on: SK-MEL-2

With CN(COC(=O)c1ccccc1)c1nc(N(C)COC(=O)c2ccccc2)nc(N(C)COC(=O)c2ccccc2)n1 the GI50 (SK-MEL-5) was > 100 µM (inactive), the GI50 (OVCAR-8) was 39.4 µM (inactive) and the GI50 (RXF 393) was 7.83 µM (inactive). For the same molecule, the GI50 (M14) was > 86.3 µM (inactive), the GI50 (HCT-15) was > 100 µM and the GI50 (NCI-H460) was > 69.5 µM (inactive). The GI50 (HCC 2998) was > 100 µM (inactive), the GI50 (NCI/ADR-RES) was 50.1 µM (inactive) and the GI50 (CCRF-CEM) was > 100 µM (inactive). For the same molecule, the GI50 (RPMI-8226) was > 100 µM (inactive), the GI50 (NCI-H226) was 30.4 µM (inactive) and the GI50 (786-0) was 11.4 µM (inactive). For the same molecule, the GI50 (KM12) was > 100 µM (inactive), the GI50 (UO-31) was > 83.9 µM (inactive) and the GI50 (DU-145) was > 100 µM (inactive). The GI50 (SR) was > 100 µM (inactive), the GI50 (MOLT-4) was > 100 µM (inactive) and the GI50 (SF-268) was 21.8 µM (inactive). The GI50 (NCI-H23) was 41.5 µM (inactive), the GI50 (OVCAR-4) was 47.5 µM (inactive) and the GI50 (HL-60) was > 100 µM (inactive). The GI50 (MCF7) was > 71.9 µM (inactive), the GI50 (UACC-62) was > 60.7 µM (inactive) and the GI50 (Malme-3M) was > 100 µM (inactive). The GI50 (HCT-116) was 44.5 µM (inactive), the GI50 (SF-539) was 12.2 µM (inactive) and the GI50 (Hs-578T) was 22.4 µM (inactive). For the same molecule, the GI50 (SK-MEL-28) was > 100 µM (inactive), the GI50 (NCI-H522) was 52.4 µM (inactive) and the GI50 (ACHN) was 21.2 µM (inactive). For the same molecule, the GI50 (MDA-MB-231) was 15.7 µM (inactive), the GI50 (U-251) was 20.2 µM (inactive) and the GI50 (SW-620) was > 100 µM (inactive). The GI50 (OVCAR-5) was > 100 µM (inactive), the GI50 (SF-295) was 23.9 µM (inactive) and the GI50 (SN12C) was > 100 µM (inactive). For the same molecule, the GI50 (HT-29) was > 100 µM (inactive), the GI50 (COLO 205) was > 100 µM (inactive) and the GI50 (K562) was > 27.4 µM (inactive). For the same molecule, the GI50 (SNB-19) was 16.5 µM (inactive), the GI50 (PC-3) was > 100 µM (inactive) and the GI50 (TK-10) was 20.3 µM (inactive). The GI50 (EKVX) was > 83.6 µM (inactive), the GI50 (MDA-MB-435) was > 100 µM (inactive) and the GI50 (CAKI-1) was 57.7 µM (inactive). The GI50 (OVCAR-3) was > 84.1 µM (inactive), the GI50 (SK-OV-3) was > 65.2 µM (inactive) and the GI50 (IGROV-1) was 28.8 µM (inactive). The GI50 (SNB-75) was > 94.6 µM (inactive), the GI50 (HOP-62) was 14.7 µM (inactive) and the GI50 (MDA-N) was > 100 µM (inactive). The GI50 (HOP-92) was 13.1 µM (inactive), the GI50 (A549) was > 100 µM (inactive) and the GI50 (UACC-257) was > 91.4 µM (inactive). For the same molecule, the GI50 (T47D) was 28.8 µM (inactive) and the GI50 (LOX IMVI) was > 100 µM (inactive).
CCn1nc(-c2ccccc2)c2c1N(C)c1ccccc1-n1c(-c3ccccc3)nnc1-2 was tested, and the GI50 (SK-MEL-5) was 9.25 µM (inactive), the GI50 (OVCAR-8) was 20.9 µM (inactive) and the GI50 (M14) was 16 µM (inactive). The GI50 (HCT-15) was 10.4 µM, the GI50 (NCI-H460) was 14.3 µM (inactive) and the GI50 (HCC 2998) was 15.9 µM (inactive). For the same molecule, the GI50 (NCI/ADR-RES) was 14.9 µM (inactive), the GI50 (CCRF-CEM) was 18.8 µM (inactive) and the GI50 (RPMI-8226) was 9.68 µM (inactive). For the same molecule, the GI50 (NCI-H226) was 17.2 µM (inactive), the GI50 (786-0) was 16.3 µM (inactive) and the GI50 (UO-31) was 14.2 µM (inactive). For the same molecule, the GI50 (DU-145) was 16.1 µM (inactive), the GI50 (SR) was 14.4 µM (inactive) and the GI50 (MOLT-4) was > 10 µM (inactive). For the same molecule, the GI50 (SF-268) was 16.1 µM (inactive), the GI50 (A498) was 1.46 µM (inactive) and the GI50 (NCI-H23) was 14 µM (inactive). For the same molecule, the GI50 (HL-60) was > 10 µM (inactive), the GI50 (MCF7) was 5.45 µM (inactive) and the GI50 (UACC-62) was 12.8 µM (inactive). The GI50 (HCT-116) was 13.1 µM (inactive), the GI50 (SF-539) was 22.5 µM (inactive) and the GI50 (Hs-578T) was 19 µM (inactive). For the same molecule, the GI50 (SK-MEL-28) was 17.7 µM (inactive), the GI50 (ACHN) was 13.5 µM (inactive) and the GI50 (MDA-MB-231) was 13.4 µM (inactive). The GI50 (U-251) was 15 µM (inactive), the GI50 (SW-620) was 16.1 µM (inactive) and the GI50 (OVCAR-5) was 19.4 µM (inactive). The GI50 (SN12C) was 16.4 µM (inactive), the GI50 (COLO 205) was 19.7 µM (inactive) and the GI50 (K562) was 17.1 µM (inactive). For the same molecule, the GI50 (SNB-19) was 15.9 µM (inactive), the GI50 (PC-3) was 13.2 µM (inactive) and the GI50 (TK-10) was 16 µM (inactive). The GI50 (MDA-MB-435) was > 100 µM (inactive), the GI50 (SK-OV-3) was 18.9 µM (inactive) and the GI50 (IGROV-1) was 19.9 µM (inactive). The GI50 (SNB-75) was 3.69 µM (inactive), the GI50 (SK-MEL-2) was 17.3 µM (inactive) and the GI50 (HOP-62) was 17.9 µM (inactive). The GI50 (MDA-N) was 15.1 µM (inactive), the GI50 (HOP-92) was 16.3 µM (inactive) and the GI50 (A549) was 13.3 µM (inactive). For the same molecule, the GI50 (T47D) was 4.63 µM (inactive) and the GI50 (LOX IMVI) was 16.6 µM (inactive).
